The values that follow are results of earlier work, collected in US20030083469A1, “Allosteric control of nuclear hormone receptors” (The Salk Institute for Biological Studies, priority 1995, published 2003).

One data set concerns RAR. The following applies: Allegretto et al., 1993, Allenby et al.; cited from earlier work.
The test system of a further data set is RXR. The following applies: Allegretto et al., 1993, Allenby et al.; cited from earlier work.

As for `CC1=C(/C=C/C(C)=C\C=C\C(C)=C\C(=O)O)C(C)(C)CCC1` [9-cis RA, 9-cis retinoic acid], the binding affinity entry in the data set with RAR and with RXR was “high affinity” throughout.
